The text below walks through data of ChEMBL document CHEMBL2417441, “Synthesis, structure, and cytotoxicity studies of some fungal isochromanes” (J Nat Prod, 2013).

Activity calls are given as the source filed them. No cut-off for these calls is given here.

Assay [1] has as its system HCT-116. Briefly: Cytotoxicity against human HCT116 cells after 72 hrs by WST-8 assay. The format is functional, cell-based. The note with it: HCT-116, 72 h. For orientation: Formazan colour is commonly taken as a measure of viable cells.
Assay [2] relates to HCT-116. The experiment in a line: Induction of apoptosis in human HCT116 cells at 5 uM after 72 hrs by fluorescence microscopic analysis relative to etoposide. The format is functional.
In assay [3] the test system is HCT-116. Briefly: Induction of apoptosis in human HCT116 cells assessed as DNA fragmentation at 5 uM after 72 hrs by TUNEL assay. The assay is classed as functional, cell-based.

Broadly, the IC50 is the midpoint of a concentration-inhibition curve. A low value points to greater potency. In the assay on HCT-116 [1], `CO[C@H]1O[C@H](C)Cc2ccc3c(c21)O[C@@H](C(C)C)C3=O` (relative stereo) yielded an IC50 of more than 100 µM.

Consider `CC(C)[C@H]1Oc2c(ccc3c2[C@@H](O)O[C@H](C)C3)C1=O`, for which the IC50 in the assay with HCT-116 [1] was more than 100 µM.

Regarding `CO[C@H]1O[C@H](C)Cc2ccc3c(c21)O[C@H](C(C)C)C3=O`, the concentration for half-maximal inhibition (IC50) with HCT-116 [1] was more than 100 µM.

As for `CC(C)=C1Oc2c(ccc3c2C(=O)O[C@H](C)C3)C1=O`, in the assay with HCT-116 [1], the half-maximal inhibitory concentration (IC50) is 9.8 µM.

Regarding `CO[C@H]1O[C@H](C)Cc2ccc3c(c21)OC(=C(C)C)C3=O` [USTUSORANE C], the IC50 in the assay on HCT-116 [1] amounted to 5.9 µM.

Turning to `CC[C@@]1(O)C(=O)OCc2c1cc1n(c2=O)Cc2cc3ccccc3nc2-1` [CAMPTOTHECIN], the half-inhibitory concentration (IC50) in the assay with HCT-116 [1] is 0.016 µM.

Take `CC(C)=C1Oc2c(ccc3c2[C@@H](O)O[C@H](C)C3)C1=O` [(+)-PSEUDODEFLECTUSIN]: the “fold change (FC)” value in the assay with HCT-116 [2] is 2. In addition, the IC50 in the assay on HCT-116 [1] came to 5 µM. Further, in the assay on HCT-116 [3], the outcome was Active.

As to `CC(C)[C@@H]1Oc2c(ccc3c2[C@@H](O)O[C@H](C)C3)C1=O`, in the assay on HCT-116 [1], the half-inhibitory concentration (IC50) is more than 100 µM.

For `C[C@@H](O)Cc1cccc(O)c1CO`, the IC50 in the assay on HCT-116 [1] was more than 100 µM.
